Reference: patent US8334261B2, “Osteopenia animal model” (Oriental Yeast Co., Ltd., priority 2006, dated 2012)

Columns and labels:
[1] = test system: GST-RANKL-administered 7-week-old female C57BL/6 mice; experiment: Comparison of a plurality of bisphosphonates in GST-RANKL mice; assay type: in vivo, mouse; details: for dose at which the effects were exhibited: s.c. from the day before GST-RANKL
Protocol: GST-RANKL was intraperitoneally administered 3 times at 1 mg/kg every 24 hours. The femur, tibia, and serum were collected from each mouse 1.5 hours after the 3rd GST-RANKL administration. Measurement of TRAP-5b, calcium (Ca), and alkaline phosphatase (ALP) in the serum was carried out. Each femur was subjected to bone density measurement with pQCT and image analysis with micro CT.

[2] = test system: GST-RANKL-administered, ovariectomized 7-week-old female C57BL/6N mice; experiment: Drug evaluation with a selective estrogen receptor modulator (raloxifene) in GST-RANKL/OVX mice; assay type: in vivo, mouse
Excerpt: In addition, PBS (i.p.) and ultrapure water (p.o.) were used as control substances for comparison with GST-RANKL and raloxifene, respectively, upon administration.
The serum collected from each mouse was subjected to measurement of serum bone resorption markers (Ca and TRAP-5b) and an osteogenesis marker (ALP). Each femur was subjected to measurement of the bone density, the bone mineral content, and the cortical bone thickness with pQCT at points 0.6, 0.8, 1.0 mm from the distal growth plate on the proximal side. In addition, image analysis was carried out with micro CT.

[3] = test system: GST-RANKL-administered 7-week-old female C57BL/6N mice; experiment: Evaluation of an osteoporosis therapeutic agent (risedronate) with GST-RANKL-administered mice; assay type: in vivo, mouse
Protocol: GST-RANKL (426 nmol) was intraperitoneally administered 3 times to groups of 7-week-old female C57BL/6N mice (5 to 6 individuals each) every 24 hours. An osteoporosis therapeutic agent (risedronate) was subcutaneously administered at 0.01 mg/kg every 24 hours from 3 days before GST-RANKL administration. Administration of the agent was continued to the end of the experimentation every 24 hours. The serum, femur, and tibia were collected from each mouse 1.5 hours after the 3rd administration of GST-RANKL. Bone resorption parameters (calcium, CTx, and TRAP-5b) and osteogenesis parameters (osteocalcin and ALP) in the serum were measured. The femur bone density was determined with the use of pQCT and micro CT. Measurement values were compared with those for a control group by the Dunnett method for testing.

[4] = test system: GST-RANKL-administered 7-week-old female C57BL/6 mice; experiment: Drug evaluation with bisphosphonate (risedronate) in GST-RANKL mice; assay type: in vivo, mouse
Protocol: Risedronate was separately administered via a subcutaneous route to groups of 7-week-old female C57BL/6 mice at doses of 3, 10, and 30 μg/kg every 24 hours from the day before GST-RANKL administration to the end of the experimentation. The femur and serum were collected from each mouse 1.5 hours after the 3rd administration of GST-RANKL. Measurement of TRAP-5b, calcium (Ca), and alkaline phosphatase (ALP) was carried out. Each femur was subjected to bone density measurement and image analysis with the use of pQCT.

[5] = test system: GST-RANKL-administered 7-week-old female C57BL/6N mice; experiment: Evaluation of RANKL-signal-inhibiting compound (LFM-A13) in osteopenia mouse models; assay type: in vivo
Protocol: GST or GST-RANKL (20 μg) was administered 3 times to 7-week-old female C57BL/6N mice every 24 hours. LFM-A13 (20 mg/kg body weigh) or physiological saline was administered thereto 1 hour before GST-RANKL administration. Measurement of the serum Ca concentration and bone morphology measurement was carried out 1.5 hours after the 3rd GST-RANKL administration. In addition, 3D image analysis was carried out with micro CT.

[6] = test system: 7-week-old female C57BL/6N mice; experiment: Production of osteopenia model mice with soluble RANKL; assay type: in vivo, mouse
Protocol: Soluble RANKL (produced by Peprotech) was intraperitoneally administered 3 times to groups of 7-week-old female C57BL/6N mice (10 individuals each) at doses of 57 and 426 nmol every 24 hours. The serum and femur were collected from each mouse 1.5 hours after the 3rd administration. Bone resorption markers and osteogenesis markers in the serum were measured. The bone density was measured with the use of pQCT at points 0.6, 0.8, and 1.0 mm from the distal growth plate on the proximal side of the femur.

[7] = raloxifene 1 or 10 mg/kg p.o. 14 days
[8] = combination of GST-RANKL and risedronate 0.01 mg/kg

CC(O)(P(=O)(O)O)P(=O)(O)O [etidronate]
dose at which the effects were exhibited [1]: 30000 µg/kg

O=C(c1ccc(OCCN2CCCCC2)cc1)c1c(-c2ccc(O)cc2)sc2cc(O)ccc12 [raloxifene]
cancellous bone density (pQCT) ([2]; among the all groups): no significant differences | cortical bone mineral content increase in GST-RANKL+OVX group ([2]; raloxifene 1 mg/kg, 0.8 mm): 93% | cortical bone thickness increase in GST-RANKL+OVX group ([2]; raloxifene 1 mg/kg, 0.8 mm): 101% | cortical bone mineral content increase in GST-RANKL+OVX group ([2]; raloxifene 1 mg/kg, 1.0 mm): 136% | cortical bone thickness increase in GST-RANKL+OVX group ([2]; raloxifene 1 mg/kg, 1.0 mm): 137% | total bone density increase in GST-RANKL+OVX group ([2]; raloxifene 1 mg/kg, 1.0 mm): 10% | serum ALP concentration ([2]; raloxifene 1 mg/kg, p<0.05): significantly decreased | cortical bone mineral content increase in GST-RANKL+OVX group ([2]; raloxifene 10 mg/kg, 0.6 mm): 87% | cortical bone thickness increase in GST-RANKL+OVX group ([2]; raloxifene 10 mg/kg, 0.6 mm): 92% | total bone density increase in GST-RANKL+OVX group ([2]; raloxifene 10 mg/kg, 0.6 mm): 10% | cortical bone mineral content increase in GST-RANKL+OVX group ([2]; raloxifene 10 mg/kg, 0.8 mm): 118% | cortical bone thickness increase in GST-RANKL+OVX group ([2]; raloxifene 10 mg/kg, 0.8 mm): 123% | total bone density increase in GST-RANKL+OVX group ([2]; raloxifene 10 mg/kg, 0.8 mm): 11% | cortical bone mineral content increase in GST-RANKL+OVX group ([2]; raloxifene 10 mg/kg, 1.0 mm): 137% | cortical bone thickness increase in GST-RANKL+OVX group ([2]; raloxifene 10 mg/kg, 1.0 mm): 133% | total bone density increase in GST-RANKL+OVX group ([2]; raloxifene 10 mg/kg, 1.0 mm): 11% | serum ALP concentration ([2]; raloxifene 10 mg/kg, p<0.01): significantly decreased | serum Ca concentration [2, 7]: no significant changes | serum TRAP-5b concentration [2, 7]: no significant changes

NCCCC(O)(P(=O)(O)O)P(=O)(O)O [alendronate]
serum Ca concentration vs RANKL administration ([1]; 300 μg/kg s.c., p<0.05): significantly decreased | increase in the TRAP-5b concentration ([1]; 300 μg/kg, p<0.01): significantly suppressed | dose at which the effects were exhibited [1]: 300 µg/kg

O=P(O)(O)C(O)(Cc1cccnc1)P(=O)(O)O [risedronate]
serum CTx concentration decrease vs control group ([3]; combination of GST-RANKL 426 nmol and risedronate 0.01 mg/kg s.c.): approximately 30% | serum TRAP-5b concentration decrease vs control group ([3]; combination of GST-RANKL 426 nmol and risedronate 0.01 mg/kg s.c. every 24 hours): approximately 30% | femur bone density vs control [3, 8]: comparable to that for the control group | serum alkaline phosphatase concentration vs control [3, 8]: did not change | serum osteocalcin concentration vs control [3, 8]: did not change | serum TRAP-5b decrease vs RANKL alone ([4]; risedronate 3 μg/kg s.c. every 24 hours): approximately 30% | bone density decrease suppressed to ([4]; risedronate 3 μg/kg, 0.6 mm): 12% | bone density decrease suppressed to ([4]; risedronate 3 μg/kg, 0.8 mm): 18% | bone density decrease suppressed to ([4]; risedronate 3 μg/kg, 1.0 mm): 24% | serum TRAP-5b decrease vs RANKL alone ([4]; risedronate 10 μg/kg s.c.): ~50% | bone density decrease suppressed to ([4]; risedronate 10 μg/kg, 0.6 mm): 13% | bone density decrease suppressed to ([4]; risedronate 10 μg/kg, 0.8 mm): 28% | bone density decrease suppressed to ([4]; risedronate 10 μg/kg, 1.0 mm): 30% | serum ALP concentration vs RANKL alone ([4]; risedronate 30 μg/kg): significantly decreased | serum TRAP-5b decrease vs RANKL alone ([4]; risedronate 30 μg/kg s.c.): ~70% | bone density decrease suppressed to ([4]; risedronate 30 μg/kg, 0.6 mm): 10% | bone density decrease suppressed to ([4]; risedronate 30 μg/kg, 0.8 mm): 18% | bone density decrease suppressed to ([4]; risedronate 30 μg/kg, 1.0 mm): 20% | serum Ca concentration vs RANKL administration ([1]; 1 μg/kg s.c., p<0.01): significantly decreased | increase in the TRAP-5b concentration ([1]; 1 μg/kg, p<0.05): significantly suppressed | increase in the TRAP-5b concentration ([1]; 10 μg/kg, p<0.01): significantly suppressed | serum Ca concentration vs RANKL administration ([1]; 100 μg/kg s.c., p<0.01): significantly decreased | bone density decrease suppressed to ([1]; 100 μg/kg, 0.6-mm point): 1% | increase in the TRAP-5b concentration ([1]; 100 μg/kg, p<0.01): significantly suppressed | dose at which the effects were exhibited [1]: 100 µg/kg

C/C(O)=C(\C#N)C(=O)Nc1cc(Br)ccc1Br [LFM-A13]
bone mass decrease caused by GST-RANKL (micro CT) ([5]; LFM-A13 20 mg/kg 1 hour before GST-RANKL 20 μg): suppressed | decrease in the trabecular number (Tb.N) resulting from GST-RANKL ([5]; LFM-A13 20 mg/kg, p<0.01): significantly suppressed | decrease in unit bone mass (BV/TV) caused by GST-RANKL ([5]; LFM-A13 20 mg/kg, p<0.01): significantly suppressed | increase in the eroded surface area (ES/BS) resulting from GST-RANKL ([5]; LFM-A13 20 mg/kg, p<0.01): significantly suppressed | increase in the osteoclast number (N.Oc/B.Pm) resulting from GST-RANKL ([5]; LFM-A13 20 mg/kg, p<0.01): significantly suppressed | decrease in the trabecular width (Tb.Th) resulting from GST-RANKL ([5]; LFM-A13 20 mg/kg, p<0.05): significantly suppressed | increase in the serum Ca concentration resulting from GST-RANKL ([5]; LFM-A13 20 mg/kg, p<0.05): significantly suppressed

B1: Soluble RANKL: Soluble RANKL (produced by Peprotech) (protein, UniProt O14788 69-317, looked up)
extracellular domain: YFRAQMDPNRISEDGTHCIYRILRLHENADFQDTTLESQDTKLIPDSCRRIKQAFQGAVQKELQHIVGSQHIRAEKAMVDGSWLDLAKRSKLEAQPFAHLTINATDIPSGSHKVSLSSWYHDRGWAKISNMTFSNGKLIVNQDGFYYLYANICFRHHETSGDLATEYLQLMVYVTKTSIKIPSSHTLMKGGSTKYWSGNSEFHFYSINVGGFFKLRSGEEISIEVSNPSLLDPDQDATYFGAFKVRDID
modifications: extracellular domain
femur bone density decrease ([6]; 426 nmol): approximately 20% | serum CTx concentration, fold as high ([6]; 426 nmol): ~1.5 fold | serum alkaline phosphatase concentration ([6]; 426 nmol): did not vary | serum osteocalcin concentration ([6]; 426 nmol): did not vary | serum calcium concentration, fold as high ([6]; 426 nmol high dose i.p. 3 times): approximately 1.4 fold | serum TRAP-5b concentration, fold as high ([6]; 426 nmol, no significant difference): approximately 1.25 fold
